Measurements published in a melting point compilation (Tetko et al.; mined from patent text by program, amines drawn as free bases though some values may be those of a salt).

| melting point | Compound |
| --- | --- |
| 132 to 135 °C | Cn1c(C(F)(F)F)cc(=O)n(-c2c(F)cc(Cl)c3c2OC(C)(C)CC3)c1=O |
| 77 to 78 °C | CCn1cccc1C(=O)O |
| 200 to 202 °C | O=c1c(CO)coc2cc(OCCCN3CCC(c4noc5cc(F)ccc45)CC3)ccc12 |
| 208 to 210 °C | CCc1nc(OC)c(NC(=O)N2CCN(c3cccc(F)c3)CC2)cc1C(=O)NC(C)C(=O)Nc1cc(CO)cc(Nc2c3ccccc3nc3ccccc23)c1 (stereo unspecified) |
| 92 to 93 °C | O=C(CCc1ccc2c(c1)CCCC2)N1C(=O)OC[C@@H]1Cc1ccccc1 |
| 106 to 107 °C | O=C(CN1CCN(c2ccc(F)cc2)CC1)CN1CCN(c2ccc(F)cc2)CC1 |
| 38 to 40 °C | CCn1c(C=O)cnc1[N+](=O)[O-] |
| 147 to 150 °C | Clc1cc(CBr)c2noc(-c3ccc(Br)cc3)c2c1 |
| 127 to 129 °C | CN(C)CCCN1N=C2C(=Cc3ccccc3)CS(=O)(=O)CC2C1c1ccccc1 (stereo unspecified) |
| 135 to 137 °C | CC1(C)C(=O)Oc2ccc3ccc(C=O)cc3c21 |
| 202 to 204 °C | COc1cc([N+](=O)[O-])c2c(c1OC)C(=O)CC2 |
| 211 °C | O=c1c2ccccc2nc(-c2ccccc2Cl)n1O |
| 126 °C | O=S1(=O)c2cccc3cccc(c23)N1CCCN1CCN(c2ccccc2)CC1 |
| 90 to 92 °C | CCOC(=O)NCC(O)c1ccc(OC)c(OC)c1 (stereo unspecified) |
| 177 to 178 °C | CS(=O)(=O)OCCCn1cc(C2=C(c3ccccc3[N+](=O)[O-])C(=O)NC2=O)c2ccccc21 |
| 153 to 156 °C | CC(Br)C(=O)c1ccc2c(c1)C(C)NC(=O)N2 (stereo unspecified) |
| 131 to 132 °C | CCOc1nc(C(F)(F)F)cc(=O)n1-c1cc(OCCON=C(C)C)c(Br)cc1F |
| 71 to 73 °C | COc1ccc(CCCC(CC(=O)O)CC(=O)O)cc1 |
| 210 to 213 °C | Cn1cc(C2=C(c3cn(CO)c4ccccc34)C(=O)NC2=O)c2ccc([N+](=O)[O-])cc21 |
| 178 °C | Cc1c(N)nc(=S)n(C)c1N |
| 187 to 190 °C | CCOC(=O)C1(NC=O)Cc2ccccc2NC1=O (stereo unspecified) |
| 99.5 to 102 °C | Clc1nc2ccccc2nc1OCCOc1ccccc1 |
| 184 to 186 °C | Cc1nnc2c3c(c(NCCN4CCCC4)nn12)CCCC3 |
| 103 to 105 °C | CC1=C(C(=O)O)OCCO1 |
| 53 to 57 °C | CC(NC(=O)C(C)(Cc1c[nH]c2ccccc12)NCc1cc2ccccc2o1)c1ccn(C)c1 (stereo unspecified) |

| melting point | Compound |
| --- | --- |
| 132 to 133 °C | CCc1c([N+](=O)[O-])c(C(N)=O)nn1CCN1CCOCC1 |
| 226 to 231 °C | CN1CCN(C(=O)c2ccccc2C(c2ccc(O)cc2)c2ccc(O)cc2)CC1 |
| 137 to 142 °C | CCC(=O)Oc1ccc(NC(=O)OC(C)(C)C)cc1C(=O)O |
| 58.1 to 58.3 °C | CCOc1ccc(-c2nc(CCC(=O)OC)cs2)cc1OCC |
| 248 to 252 °C | CC(C=O)C1CCC2C3CCC4CCCCC4(C)C3CCC12C (stereo unspecified) |
| 138 to 140 °C | CCOC(=O)NC(Cc1ccccc1)C(O)C(=O)O (stereo unspecified) |
| 83 to 84 °C | COC(=O)[C@H](CC(=O)OC(C)(C)C)NC(=O)c1cccc(NC(=O)c2ccc(C#N)cc2)c1 |
| 146 °C | O=C1CCc2c1cccc2C(=O)c1ccc(Cl)cc1 |
| 93 to 95 °C | COc1nc2cc(F)ccc2nc1Cl |
| 209 to 211 °C | COCCNC(=O)c1c(O)c2cc(Cl)ccc2n(C)c1=N |
| 223 to 224 °C | COC(=O)c1ccc(NC(=O)Nc2ccc(OC)c(C34CC5CC(CC(C5)C3)C4)c2)cc1 |
| 135 to 138 °C | COc1cc2ncc(C#N)c(Nc3ccc(F)c(Cl)c3)c2cc1NC(=O)C=CCN1CCSC1 |
| 49 to 50 °C | Fc1ccc(Oc2ncccc2COCc2ccccc2)cc1 |
| 85 to 90 °C | CSCC[C@H](NC(=O)Cc1cc(F)cc(F)c1)C(=O)N[C@@H]1C(=O)Nc2ccccc2S[C@@H]1c1ccccc1 |
| 135 to 136 °C | O=C(CN1CC(c2ccc(Cl)cc2)CC1=O)Oc1c(Cl)c(Cl)c(Cl)c(Cl)c1Cl (stereo unspecified) |
| 33 to 34 °C | CCC(CC)n1nc(C)c2c(Cl)nc(C)nc21 |
| 73 to 74 °C | C#CCCCOc1cc(C=O)ccc1OC |
| 203 °C | Cn1nc(O)ccc1=S |
| 124 to 126 °C | CC(C)(O)CCCCc1ccc(CCc2ccc(O)c(O)c2)cc1 |
| 155 to 157 °C | CCCn1c(COC)nc2c(N)nc3ccc(OCCC4CCCN4C)cc3c21 (stereo unspecified) |
| 69 to 70 °C | COc1ccc(CCN2COc3c(cccc3OC)C2)cc1 |
| 226 °C | O=C(O)c1cc2cc(OC(F)F)ccc2nc1C(=O)O |
| 123 to 125 °C | O=C(c1cccs1)c1cnn2c(-c3cccc(NC/C=C/c4ccccc4)c3)ccnc12 |
| 78 to 79 °C | CC(=O)OCCCC1Oc2c(C)c(C)c(OC(C)=O)c(C)c2S1 (stereo unspecified) |
| 73 to 74 °C | CC(C)Oc1c(CO)cnc2c(C(F)(F)F)cccc12 |

| melting point | Compound |
| --- | --- |
| 82 to 85 °C | COc1ccc(CN(C)CCCCc2ccc(NC(=O)c3cnc4ccccc4n3)cc2)cc1OC |
| 148 to 150 °C | N#CC(C(N)=O)c1ccccc1 (stereo unspecified) |
| > 250 °C | CC1(C)CC(N(CCCCCCN(CCC(=O)O)C2CC(C)(C)NC(C)(C)C2)CCC(=O)O)CC(C)(C)N1 |
| 206 to 208 °C | O=C(NC1c2cc(NC(=O)N3CCCC3)ccc2CCC1O)c1ccc(Cl)c(Cl)c1 (stereo unspecified) |
| 110 to 112 °C | CC(=O)OCc1c2ccccc2cc2ccccc12 |
| 154 to 156 °C | Cc1ccc(NC(=O)c2cc(Cl)ccc2NCC2CCN(C3CCS(=O)(=O)CC3)CC2)nc1 |
| 220 to 224 °C | CC(C)n1nc(-c2nc(Br)c(N=S(C)C)nc2-c2ccccc2)ccc1=O |
| 221 to 223 °C | CC(C)(O)Cn1c(CO)nc2c(N)nc3cc(CCS(C)(=O)=O)ccc3c21 |
| 124 °C | Cc1cc2cnnc(OCc3ccccc3)c2n1Cc1ccccc1 |
| 202 to 203 °C | COC(=O)C(=Cc1c[nH]c2cc(Cl)ccc12)NC(C)=O |
| 208 to 210 °C | CO/C(=C\C=C\c1cc2cc(Br)ccc2[nH]1)C(=O)O |
| 241 to 244 °C | CC(C)NC(=O)N1CCC(F)(Cc2c3c(nn2C)c(N)nc2ccccc23)CC1 |
| 245 °C | COc1ccc(-c2c(C(=O)O)c(=O)n(Cc3ccccc3OC)c3c2oc2cc(N)ccc23)cc1 |
| 126 to 127 °C | O=C(c1ccc(O)cc1)c1ccc(OCCOCCO)cc1 |
| 253 to 254 °C | COc1ccc(N2C(=O)NC3(CCOCC3)C2=O)cc1 |
| 96 °C | CCC[C@H]1CC[C@H]([C@H]2CC[C@H](C3=CC(=O)CCC3)CC2)CC1 |
| 110 to 112 °C | O=C(CCc1c(C(=O)OCCN2CCOCC2)[nH]c2cc(Cl)cc(Cl)c12)OCCN1CCOCC1 |
| 104 °C | CC(N)Cn1cc(-c2ccccc2)c2ccccc2c1=O (stereo unspecified) |
| 157 to 158 °C | Cc1ccc(S(=O)(=O)c2nc(C)c(Br)c(C)n2)cc1 |
| 112 to 113 °C | CCC(C)COC(=O)c1ccc(-c2ccc(O)cc2)cc1 (stereo unspecified) |
| 88 °C | Cc1cc(-n2ccnc2)c2cccc(OCc3c(Cl)ccc(S(=O)(=O)N4CCC[C@H]4C(=O)N4CCN(c5ccccc5)CC4)c3Cl)c2n1 |
| 178 to 180 °C | CCN(C(=O)c1ccccc1C(=O)c1ccc(Cl)cc1)[C@@H]1CCCC[C@@H]1NS(=O)(=O)c1ccc(C)cc1 (relative stereo) |
| 245 °C | Cc1cc(-c2cc(C(F)(F)F)n3ncc(-c4nc(-c5ccnc(N)c5)no4)c3n2)ccc1C(F)(F)F |
| 110 °C | COc1ccc(C2(c3ccc(-c4ccc(F)cc4)s3)N=C(N)N(C)C2=O)cc1C (stereo unspecified) |
| 78 °C | C1=CC(c2ccccc2)(c2ccccc2)CCS1 |

| melting point | Compound |
| --- | --- |
| 207 °C | O=c1[nH]c2ccccc2c(=O)cc1NCCO |
| 123 to 128 °C | CCc1ccc([N+](=O)[O-])cc1CNC(C)=O |
| 71.8 °C | C=CCC(C#N)(C#N)Cc1ccc(Cl)c(Cl)c1 |
| 205 to 207 °C | CC(=O)Nc1c(C(=O)c2ccc(F)cc2)[nH]c2cc(Cl)ccc12 |
| 201 to 202 °C | CC(C)(C)C(NC(=O)c1cccc2c1-c1ccccc1C2=O)Nc1c(Nc2cccnc2)c(=O)c1=O (stereo unspecified) |
| 189 to 191 °C | O=C(O)c1ccc(Cl)c(NC(=O)C(CS)Cc2ccccc2)c1 (stereo unspecified) |
| 76 to 87 °C | Cn1nnnc1SCc1c(S(C)(=O)=O)ccc(C(=O)C2=C(Sc3ccccc3)CCCC2=O)c1Cl |
| 158 to 161 °C | CC(CS(=O)(=O)c1ccccc1)C1CCC2C3CC=C4CC(O)CCC4(C)C3CCC12C (stereo unspecified) |
| 146 to 148 °C | CC(=O)N(C)c1cccc(C(=O)C=CN(C)C)c1 |
| 85 to 87 °C | COc1cccc2c1OCC(C(=O)O)O2 (stereo unspecified) |
| 192 to 193 °C | CC(C)n1nc(-c2c(-c3ccccc3)nn3ccc(C(=O)NCc4cccnc4)cc23)ccc1=O |
| 50 °C | CC(C)C(=CCS(=O)(=O)c1ccccc1)C(C)C |
| 283 to 285 °C | CCOc1ccc(-c2nc(-c3ccc(S)cc3C(=O)O)cs2)cc1OCC |
| 131 to 133 °C | Cn1nnc(-c2ccc3c(ccn3-c3ccc(F)cc3)c2)n1 |
| 89 to 90 °C | CCOC(=O)C(=CNC1CC1)C(=O)c1cc(F)c(Cl)cc1Cl |
| 91 to 94 °C | Cc1cc(C)c(C)c(OC(C)(C)C(=O)O)c1 |
| > 250 °C | CN1C(=O)COc2cc3c(cc21)OCC31C(=O)Nc2ccccc21 (stereo unspecified) |
| 178 to 179 °C | COc1cc(OC)cc(C(=O)N2CCc3cc(O)ccc3C2=O)c1 |
| 198 to 200 °C | CCOC(=O)Cn1c(C(=O)O)cc2cc(Cl)ccc21 |
| 110 to 115 °C | CNc1c(C)cc(C(C)(C)c2ccc(C(C)(C)c3cc(C)c(NC)c(C)c3)cc2)cc1C |
| 105 to 108 °C | Cc1cccc(-c2n[nH]cc2-c2ccc(F)c(-c3cc[nH]n3)c2)n1 |
| 54.2 °C | COC(=O)CCCCCCCCCCCCCCCO |

| Compound | melting point |
| --- | --- |
| O=C1NCN(c2ccccc2)C12CCN(CC1CCc3ccccc3O1)CC2 (stereo unspecified) | 192 to 194 °C |
| NC(=O)c1ncn2c1CN=C(c1ccccc1Br)c1cc(F)ccc1-2 | 298 to 299 °C |
| CC(C)CC(=O)Nc1cc(-c2ccnc3c(C(=O)c4cccs4)cnn23)cs1 | 234 to 235 °C |
| COC(=O)[C@@H]1[C@@H](O[Si](C)(C)C(C)(C)C)CCN1C(=O)Nc1ccc(C#N)c(Cl)c1C | 123 to 125 °C |
